Results reported in patent US9708314B2, “Heterocyclic amide compound” (NISSAN CHEMICAL INDUSTRIES, LTD., priority 2013, dated 2017).

Columns and labels:
Type in all cases: in vivo
Cyperus difformis = experiment: Test Example 3: herbicidal effect by application to foliage (Wagner pot, water depth 0.1-0.5 cm); conditions: Nineteenth Table; application to foliage; application herbicide amount 320 g/ha
Procedure, shortened: (§1)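 Grading uses six bands of herbicidal ratio, from 0 (≤5%, almost no effect) to 5 (≥90%, almost completely withered). Treatment was a stem-and-leaf spray of diluted emulsion at a fixed g/ha on 14-day-old plants; evaluation after three weeks.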

[1] = tested on: Echinochloa crus-galli var. crus-galli; experiment: as above; conditions: Nineteenth Table; application to foliage; application herbicide amount 320 g/ha
Procedure, shortened: as §1

Leptochloa chinensis = experiment: as above; conditions: Nineteenth Table; application to foliage; application herbicide amount 320 g/ha
Procedure, shortened: as §1

[2] = tested on: Beta vulgaris ssp. vulgaris; experiment: Test Example 4: effect on crop by application to foliage (diluvial soil, plastic box); conditions: 320 g/ha; for f (Beta vulgaris ssp. vulgaris) effect on crop grade: foliage application
Procedure, shortened: (§2)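 Plants were grown in sterilized diluvial soil in a greenhouse at 25-30° C for 14 days, then sprayed on stems and leaves with water-diluted emulsion formulation at set rates in g/ha. Weed control and crop injury were scored 3 weeks after treatment on a 0-5 herbicidal-ratio scale, from 0 (≤5%) to 5 (≥90%).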

Brassica campestris L. = experiment: as above; conditions: 320 g/ha; for g (Brassica campestris L.) effect on crop grade: foliage application
Procedure, shortened: as §2

Glycine max = experiment: as above; conditions: 320 g/ha; for c (Glycine max) effect on crop grade: foliage application
Procedure, shortened: as §2

Triticum aestivum = experiment: as above; conditions: 320 g/ha; for e (Triticum aestivum) effect on crop grade: foliage application
Procedure, shortened: as §2

Zea mays = experiment: as above; conditions: 320 g/ha; for b (Zea mays) effect on crop grade: foliage application
Procedure, shortened: as §2

[3] = tested on: directly sowed Oryza sativa; experiment: as above; conditions: 320 g/ha; for d (directly sowed Oryza sativa) effect on crop grade: foliage application
Procedure, shortened: as §2

Structure (SMILES) | E (herbicidal effect grade) (Cyperus difformis) | H (herbicidal effect grade) [1] | D (herbicidal effect grade) (Leptochloa chinensis) | f (Beta vulgaris ssp. vulgaris) effect on crop grade [2] | g (Brassica campestris L.) effect on crop grade (Brassica campestris L.) | c (Glycine max) effect on crop grade (Glycine max) | e (Triticum aestivum) effect on crop grade (Triticum aestivum) | b (Zea mays) effect on crop grade (Zea mays) | d (directly sowed Oryza sativa) effect on crop grade [3] | effect on crop, f (Beta vulgaris ssp. vulgaris) ([2]; application to foliage) | effect on crop, g (Brassica campestris L.) (Brassica campestris L.; application to foliage) | effect on crop, c (Glycine max) (Glycine max; application to foliage) | effect on crop, e (Triticum aestivum) (Triticum aestivum; application to foliage) | effect on crop, b (Zea mays) (Zea mays; application to foliage) | effect on crop, d (directly sowed Oryza sativa) ([3]; application to foliage)
CCC(C)Sc1nnc2c(C(=O)Nc3nnnn3C)ccc(C(F)(F)F)n12 (stereo not drawn) [2-072] | 5 (Herbicidal ratio of 90% or more (almost completely withered)) | 4 (Herbicidal ratio of 70% or more and less than 90%) | 5 (Herbicidal ratio of 90% or more (almost completely withered)) | 5 (Herbicidal ratio of 90% or more (almost completely withered)) | 4 (Herbicidal ratio of 70% or more and less than 90%) | 3 (Herbicidal ratio of 40% or more and less than 70%) | 1 (Herbicidal ratio of 5% or more and less than 20%) | 1 (Herbicidal ratio of 5% or more and less than 20%) | 4 (Herbicidal ratio of 70% or more and less than 90%) |  |  |  |  |  | 
CC(C)c1nnc2c(C(=O)Nc3nnnn3-c3ccccc3)ccc(C(F)(F)F)n12 [2-073] | 5 (Herbicidal ratio of 90% or more (almost completely withered)) | 4 (Herbicidal ratio of 70% or more and less than 90%) | 3 (Herbicidal ratio of 40% or more and less than 70%) | 3 (Herbicidal ratio of 40% or more and less than 70%) | 0 (Herbicidal ratio of 5% or less (almost no effect)) | 0 (Herbicidal ratio of 5% or less (almost no effect)) | 0 (Herbicidal ratio of 5% or less (almost no effect)) | 0 (Herbicidal ratio of 5% or less (almost no effect)) | 2 (Herbicidal ratio of 20% or more and less than 40%) |  |  |  |  |  | 
COCCNc1nnc2c(C(=O)Nc3nnnn3C)ccc(C(F)(F)F)n12 [2-074] | 4 (Herbicidal ratio of 70% or more and less than 90%) | 5 (Herbicidal ratio of 90% or more (almost completely withered)) | 5 (Herbicidal ratio of 90% or more (almost completely withered)) | 5 (Herbicidal ratio of 90% or more (almost completely withered)) | 4 (Herbicidal ratio of 70% or more and less than 90%) | 3 (Herbicidal ratio of 40% or more and less than 70%) | 3 (Herbicidal ratio of 40% or more and less than 70%) | 5 (Herbicidal ratio of 90% or more (almost completely withered)) | 4 (Herbicidal ratio of 70% or more and less than 90%) |  |  |  |  |  | 
Cn1nnnc1NC(=O)c1ccc(C(F)(F)F)n2c(N3CCOCC3)nnc12 [2-075] | 5 (Herbicidal ratio of 90% or more (almost completely withered)) | 5 (Herbicidal ratio of 90% or more (almost completely withered)) | 5 (Herbicidal ratio of 90% or more (almost completely withered)) |  |  |  |  |  |  | 5 (Herbicidal ratio of 90% or more (almost completely withered)) | 5 (Herbicidal ratio of 90% or more (almost completely withered)) | 3 (Herbicidal ratio of 40% or more and less than 70%) | 4 (Herbicidal ratio of 70% or more and less than 90%) | 5 (Herbicidal ratio of 90% or more (almost completely withered)) | 5 (Herbicidal ratio of 90% or more (almost completely withered))
